From patent publication US9232792B2, “Method for promoting plant growth” (SUMITOMO CHEMICAL COMPANY, LIMITED, priority 2011, dated 2016)

How the values were obtained:
[1] = tested on: Rice (cultivar: Nipponbare); test: Test Example 2: reduction of low-temperature stress by immersion treatment of rice; format: in vivo; conditions: 1 ppm in hydroponic solution; 4° C. for 5 days, then 4 days at 25° C.
Procedure: Rice (cultivar: Nipponbare)
A necessary amount of rice seeds was immersed in an aqueous solution of 1,000 ppm of Benlate, and incubated at 30° C. overnight under dark conditions. The aqueous solution of Benlate was replaced with distilled water, and the seeds were further incubated at 30° C. overnight under dark conditions to stimulate the germination of the seeds. A filter paper was placed on the holes of a plug tray having 406 holes, and the rice seeds obtained after the stimulation of germination were sown on the filter paper. To the rice seeds was added a kimura B solution for hydroponics (see Plant Science 119: 39-47 (1996)) at ½ concentration, and cultivated for 5 days in an artificial weather control room under the following conditions: • temperature: daytime 28° C./night 23° C., humidity: 70%, illuminance: 8,500 lux, and day length: 12 hours. <Compound Treatment> […]
Four (4) days after the cultivation, the overground part of each rice plant in the treated group was taken a photograph, and the area of a green portion in the obtained image data was measured with image analysis software Win ROOF (manufactured by MITANI CORPORATION) to determine the green area of the overground part of the plant. In the treated group, the experiment was performed in duplication and the average value of the green area per individual was calculated. […]

[2] = tested on: Tobacco (Nicotiana benthamiana); test: Test Example 4: reduction of low-temperature stress in hydroponics of tobacco; format: in vivo; conditions: 10 ppm in medium; 1.5±1.0° C. for 7 days, then 3 days at 22° C.
Procedure: Tobacco (Nicotiana benthamiana)
DMSO solutions containing each of the present compounds 1 to 4 at a concentration of 10,000 ppm were prepared. A 1/1,000 volume of each DMSO solution was added to a Murashige-and-Skoog medium (a medium containing 2.3 g of a mixture of salts for Murashige-and-Skoog medium (manufactured by Wako. Pure Chemical Industries, Ltd.), 200 mg of myoinositol (manufactured by Sigma-Aldrich), 2 mg of nicotinic acid (manufactured by Wako Pure Chemical Industries, Ltd.), 2 mg of pyridoxine hydrochloride (manufactured by Wako Pure Chemical Industries, Ltd.), 20 mg of thiamine hydrochloride (manufactured by Wako Pure Chemical Industries, Ltd.), 20 g of sucrose (manufactured by Wako Pure Chemical Industries, Ltd.), 1 g of MES (manufactured by DOJINDO LABORATORIES) in 1 L of water, adjusted to pH 5.8) at ½ concentration to obtain a medium containing the test compound at a concentration of 10 ppm. These media were used in the treated-group.
In a non-treated group, a medium obtained by adding a 1/1,000 volume of DMSO to a Murashige-and-Skoog medium at ½ concentration was used.
The seeds of tobacco (Nicotiana benthamiana) were sown on 5 μL of the medium, and incubated at 22° C. overnight. Thereto was added 45 μL of a medium containing each present compound at a concentration of 10 ppm, and cultivated for 7 days under the conditions of an illuminance of 4,000 lux, a temperature of 22° C. and a day length of 16 hours, thereby treating the seedlings of tobacco (Nicotiana benthamiana) with the test compound.
In the non-treated group, 45 μL of a medium obtained by adding a 1/1,000 volume of DMSO to a Murashige-and-Skoog medium at ½ concentration was added, and treated in the same manner as above.
The seedlings of tobacco (Nicotiana benthamiana) treated with the present compounds were cultivated for 7 days under the conditions of an illuminance of 2,000 lux, a temperature of 1.5±1.0° C., and a day length of 16 hours, thereby subjecting to low-temperature stress treatment.
The plants of tobacco (Nicotiana benthamiana) subjected to low-temperature stress treatment was cultivated for 3 days under the conditions of an illuminance of 4,000 lux, a temperature of 22° C., and a day length of 16 hours, and then the green leaf area of the plants was visually evaluated. Completely dead plant was scored as 0, the plant without low-temperature stress treatment was scored as 5, the green area was rated on a 6-point scale in ⅕ increments, and the score of not less than 1 was regarded as effective in reducing the stress. As a result of visual evaluation, the green leaf area of plants in the treated group, wherein the plants were treated with the present compound 1, 2, 3 or 4 was much larger than that in the non-treated group.

For O=C(O)c1cc2cc(C(F)(F)F)ccc2s1 [The present compound 1, 5-(trifluoromethyl)benzo[b]thiophene-2-carboxylic acid], the “green area of the overground part of the plant vs non-treated group” value [1] was “much larger” and the “green leaf area of plants (visual evaluation) vs non-treated group” value [2] was “much larger”.
